One assay has as its target human FPR2 receptors (Homo sapiens (Human), UniProt P25090). Nature of the assay: FPR2 cyclic adenosine monophosphate (cAMP) assay. The class given is cell-based. The settings on record: CHO cells overexpressing human FPR2. Here is the method:
(§1) FPR2 and FPR1 Cyclic Adenosine Monophosphate (cAMP) Assays. A mixture of forskolin (5 μM final for FPR2 or 10 μM final for FPR1) and IBMX (200 μM final) were added to 384-well Proxiplates (Perkin-Elmer) pre-dotted with test compounds in DMSO (1% final) at final concentrations in the range of 1.7 nM to 100 μM. Chinese Hamster Ovary cells (CHO) overexpressing human FPR1 or human FPR2 receptors were cultured in F-12 (Ham's) medium supplemented with 10% qualified FBS, 250 μg/ml zeocin and 300 μg/ml hygromycin (Life Technologies). Reactions were initiated by adding 2,000 human FPR2 cells per well or 4,000 human FPR1 cells per well in Dulbecco's PBS (with calcium and magnesium) (Life Technologies) supplemented with 0.1% BSA (Perkin-Elmer). The reaction mixtures were incubated for 30 min at room temperature. The level of intracellular cAMP was determined using the HTRF HiRange cAMP assay reagent kit (Cisbio) according to manufacturer's instruction. Solutions of cryptate conjugated anti-cAMP and d2 flurorophore-labelled cAMP were made in a supplied lysis buffer separately. Upon completion of the reaction, the cells were lysed with equal volume of the d2-cAMP solution and anti-cAMP solution. After a 1-h room temperature incubation, time-resolved fluorescence intensity was measured using the Envision (Perkin-Elmer) at 400 nm excitation and dual emission at 590 nm and 665 nm. A calibration curve was constructed with an external cAMP standard at concentrations ranging from 1 μM to 0.1 pM by plotting the fluorescent intensity ratio from 665 nm emission to the intensity from the 590 nm emission against cAMP concentrations. The potency and activity of a compound to inhibit cAMP production was then determined by fitting to a 4-parametric logistic equation from a plot of cAMP level versus compound concentrations.

The next assay addresses human FPR1 receptors (Homo sapiens (Human), UniProt P21462). Nature of the assay: FPR1 cyclic adenosine monophosphate (cAMP) assay. The settings on record: CHO cells overexpressing human FPR1; forskolin 10 μM, IBMX 200 μM; inhibition of cAMP production; read-out: hFPR1 cAMP EC50. It counts as cell-based. Here is the method: as §1
(cAMP levels reflect the balance of adenylyl cyclase and phosphodiesterase activity.)

[1] abbreviates: forskolin 5 μM, IBMX 200 μM, inhibition of cAMP production, read-out: hFPR2 cAMP2 EC50.
[2] abbreviates: hFPR2 Assay, potency bins, read-out: hFPR2 agonist activity EC50 values.

The structures appear in SMILES notation. Like-named read-outs stand apart in the source and are kept apart here. Some results are limits rather than exact numbers.

The term EC50 denotes the concentration at which the effect is half-maximal.

human FPR1 receptors, sequence (P21462 whole entry): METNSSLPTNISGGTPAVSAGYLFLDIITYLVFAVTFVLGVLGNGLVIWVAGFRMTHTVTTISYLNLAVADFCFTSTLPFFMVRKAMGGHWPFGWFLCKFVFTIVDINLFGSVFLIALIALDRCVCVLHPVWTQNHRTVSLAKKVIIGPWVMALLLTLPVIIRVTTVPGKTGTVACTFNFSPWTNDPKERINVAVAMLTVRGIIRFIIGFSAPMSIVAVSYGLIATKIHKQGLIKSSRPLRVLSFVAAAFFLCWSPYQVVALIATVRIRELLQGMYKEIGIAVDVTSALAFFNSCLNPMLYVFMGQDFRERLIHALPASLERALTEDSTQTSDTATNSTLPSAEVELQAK
human FPR2 receptors, sequence (P25090 whole entry): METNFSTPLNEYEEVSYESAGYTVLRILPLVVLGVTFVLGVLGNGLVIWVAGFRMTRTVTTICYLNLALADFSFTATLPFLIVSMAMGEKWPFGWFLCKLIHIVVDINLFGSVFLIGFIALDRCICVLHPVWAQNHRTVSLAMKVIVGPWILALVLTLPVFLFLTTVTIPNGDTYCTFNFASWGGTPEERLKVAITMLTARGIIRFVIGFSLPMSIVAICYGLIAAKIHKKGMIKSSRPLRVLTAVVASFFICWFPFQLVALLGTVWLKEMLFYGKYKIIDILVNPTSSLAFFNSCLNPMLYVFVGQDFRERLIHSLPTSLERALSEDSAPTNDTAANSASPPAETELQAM

As for `CS(=O)(=O)NCC1(c2ccc(N3CCC[C@@H](NC(=O)Nc4cnc(Cl)cn4)C3=O)cc2)CCC1` [Example 6], the EC50 came to 0.0007 µM at human FPR2 receptors (setting [1]) and 0.1 µM at human FPR1 receptors.
Regarding `CS(=O)(=O)NCC1(c2ccc(N3CCC[C@@H](NC(=O)Nc4ccc(C(F)(F)F)cc4)C3=O)cc2F)CC1` [Example 18], the EC50 at human FPR2 receptors (setting [1]) is 0.00017 µM; at human FPR1 receptors, 0.002 µM.
In the case of `CS(=O)(=O)NCC1(c2ccc(N3CCC[C@@H](NC(=O)Nc4cnc(Cl)cn4)C3=O)cc2)CC1` [Example 27], the EC50 came to 0.00091 µM on human FPR2 receptors (setting [1]) and 0.13 µM on human FPR1 receptors.
Consider `CS(=O)(=O)NCC1(c2ccc(N3CCC[C@H](NC(=O)Nc4ncc(Cl)cc4F)C3=O)cc2)CC1` [Example 41], for which the EC50 was found to be 0.98 µM on human FPR2 receptors (setting [1]) and 7.6 µM at human FPR1 receptors.
In the same order, the values of `CS(=O)(=O)NCC1(c2ccc(N3CCC[C@@H](NC(=O)Nc4ccc(C(F)(F)F)cc4)C3=O)cc2)CC1` [Example 42] are 0.00021 µM and 0.033 µM.
With `O=C(Nc1ccc(C(F)(F)F)nc1)N[C@@H]1CCCN(c2ccc(C3(CN4CCOCC4)CCC3)cc2)C1=O` [Example 52, (R)-1-(1-(4-(1-(Morpholinomethyl)cyclobutyl)phenyl)-2-oxopiperidin-3-yl)-3-(6-(trifluoromethyl)pyridin-3-yl)urea], the results for the 50% effective concentration (EC50) on human FPR2 receptors (setting [1]) and on human FPR1 receptors were 0.017 µM and 0.56 µM, respectively.
On to `O=C(Nc1ccc(Cl)cn1)N[C@@H]1CCCN(c2ccc(C3(CN4CCOCC4)CC3)cc2)C1=O` [Example 53, (R)-1-(5-chloropyridin-2-yl)-3-(1-(4-(1-(morpholinomethyl)cyclopropyl)phenyl)-2-oxopiperidin-3-yl)urea], for which the EC50 on human FPR2 receptors (setting [1]) was 0.017 µM; on human FPR1 receptors it was 0.7 µM.
In the same order, the values of `O=C(Nc1ccc(C(F)(F)F)nc1)N[C@H]1CCCN(c2ccc(C3(CN4CCCC4)CCC3)cc2)C1=O` [Example 57, (S)-1-(2-oxo-1-(4-(1-(pyrrolidin-1-ylmethyl)cyclobutyl)phenyl)piperidin-3-yl)-3-(6-(trifluoromethyl)pyridin-3-yl)urea] are 0.96 µM and above 5000 µM.
`O=C(Nc1ccc(C(F)(F)F)nc1)N[C@H]1CCCN(c2ccc(C3(CN4CCCC4)CCCC3)cc2)C1=O` [Example 58, (S)-1-(2-oxo-1-(4-(1-(pyrrolidin-1-ylmethyl)cyclopentyl)phenyl)piperidin-3-yl)-3-(6-(trifluoromethyl)pyridin-3-yl)urea]: the concentration for a half-maximal effect (EC50) amounted to 1 µM on human FPR2 receptors (setting [1]) and 3.4 µM at human FPR1 receptors.
In the same order, the values of `O=C(Nc1ccc(C(F)(F)F)nc1)N[C@H]1CCCN(c2ccc(C3(CN4CCOCC4)CCC3)cc2)C1=O` [Example 62, (S)-1-(1-(4-(1-(morpholinomethyl)cyclobutyl)phenyl)-2-oxopipendin-3-yl)-3-(6-(trifluoromethyl)pyridin-3-yl)urea] are 1.2 µM and 1.1 µM.
Regarding `O=C(Nc1ccc(C(F)(F)F)cn1)N[C@@H]1CCCN(c2ccc(C3(CN4CCOCC4)CCC3)cc2)C1=O` [Example 63, (R)-1-(1-(4-(1-(morpholinomethyl)cyclobutyl)phenyl)-2-oxopiperidin-3-yl)-3-(5-(trifluoromethyl)pyridin-2-yl)urea], the concentration for a half-maximal effect (EC50) at human FPR2 receptors (setting [2]) is 0.01 to 0.1 µM.
On to `O=C(Nc1ccc(C(F)(F)F)nc1)N[C@@H]1CCCN(c2ccc(C3(CN4CCOCC4)CC3)cc2)C1=O` [Example 64, (R)-1-(1-(4-(1-(morpholinomethyl)cyclopropyl)phenyl)-2-oxopiperidin-3-yl)-3-(6-(trifluoromethyl)pyridin-3-yl)urea], for which the 50% effective concentration (EC50) at human FPR2 receptors (setting [2]) was 0.01 to 0.1 µM.
For `O=C(Nc1ccc(C(F)(F)F)cn1)N[C@@H]1CCCN(c2ccc(C3(CN4CCOCC4)CCCC3)cc2)C1=O` [Example 65, (R)-1-(1-(4-(1-(morpholinomethyl)cyclopentyl)phenyl)-2-oxopiperidin-3-yl)-3-(5-(trifluoromethyl)pyridin-2-yl)urea], the EC50 at human FPR2 receptors (setting [2]) was 0.1 to 1.25 µM.
Consider `O=C(Nc1ccc(C(F)(F)F)nc1)N[C@@H]1CCCN(c2ccc(C3(CN4CCCC4)CC3)cc2)C1=O` [Example 66, (R)-1-(2-oxo-1-(4-(1-(pyrrolidin-1-ylmethyl)cyclopropyl)phenyl)piperidin-3-yl)-3-(6-(trifluoromethyl)pyridin-3-yl)urea], for which, at human FPR2 receptors (setting [2]), the half-maximal effective concentration (EC50) was 0.1 to 1.25 µM.
The same measure, in the same setting: to `CN(C)CC1(c2ccc(N3CCC[C@@H](NC(=O)Nc4ccc(C(F)(F)F)nc4)C3=O)cc2)CC1` [Example 67, (R)-1-(1-(4-(1-((dimethylamino)methyl)cyclopropyl)phenyl)-2-oxopiperidin-3-yl)-3-(6-(trifluoromethyl)pyridin-3-yl)urea] belongs 0.1 to 1.25 µM; to `CS(=O)(=O)NCC1(c2ccc(N3C[C@H](O)C[C@@H](NC(=O)Nc4ncc(C(F)(F)F)cc4F)C3=O)cc2)CC1` [Example 68, N-((1-(4-((3R,5R)-3-(3-(3-Fluoro-5-(trifluoromethyl)pyridin-2-yl)ureido)-5-hydroxy-2-oxopiperidin-1-yl)phenyl)cyclopropyl)methyl)methanesulfonamide], 0.01 to 0.1 µM.
`CS(=O)(=O)NCC1(c2ccc(N3C[C@@H](O)C[C@H](NC(=O)Nc4ncc(C(F)(F)F)cc4F)C3=O)cc2)CC1` [Example 69, N-((1-(4-((3S,5S)-3-(3-(3-fluoro-5-(trifluoromethyl)pyridin-2-yl)ureido)-5-hydroxy-2-oxopiperidin-1-yl)phenyl)cyclopropyl)methyl)methanesulfonamide]: the EC50 at human FPR2 receptors (setting [1]) was 0.019 µM; at human FPR1 receptors, 0.66 µM.
For the molecule `CS(=O)(=O)NCC1(c2ccc(N3C[C@H](O)C[C@@H](NC(=O)Nc4ncc(Cl)cc4F)C3=O)cc2)CC1` [Example 70], the EC50 at human FPR2 receptors (setting [2]) was 0.01 to 0.1 µM.
Turning to `CS(=O)(=O)NCC1(c2ccc(N3C[C@@H](O)C[C@@H](NC(=O)Nc4ncc(Cl)cc4F)C3=O)cc2)CC1` [Example 71], the values for the EC50 on human FPR2 receptors (setting [1]) and at human FPR1 receptors were 0.017 µM and 2.1 µM, respectively.
For `CC(=O)NC(C)C1(c2ccc(N3CCC[C@@H](NC(=O)Nc4ccc(C(F)(F)F)nc4)C3=O)cc2)CC1` (some centres unmarked) [Example 73], the figures for the concentration for a half-maximal effect (EC50) at human FPR2 receptors (setting [1]) and on human FPR1 receptors were 83 µM and 330 µM, respectively.
With `O=C(Nc1ccc(Cl)cc1F)N[C@@H]1CCCN(c2ccc(C3CCC(O)C3)cc2)C1=O` (stereo partly drawn) [Example 77, 1-(4-Chloro-2-fluorophenyl)-3-((3R)-1-(4-(3-hydroxycyclopentyl)phenyl)-2-oxopiperidin-3-yl)urea], the figures for the EC50 at human FPR2 receptors (setting [1]) and at human FPR1 receptors were 3.2 µM and 3.6 µM, respectively.
